Reference: ChEMBL document CHEMBL2016536, “New triazole derivatives as antifungal agents: synthesis via click reaction, in vitro evaluation and molecular docking studies” (2012)
In brackets after ≈: the same amount, converted by molar mass.

How the values were obtained:
Assay type in all cases: functional
Aspergillus fumigatus = test: Antifungal activity against Aspergillus fumigatus by microbroth dilution method
Candida tropicalis = test: Antifungal activity against Candida tropicalis by microbroth dilution method
Trichophyton rubrum = test: Antifungal activity against Trichophyton rubrum by microbroth dilution method
Cryptococcus neoformans = test: Antifungal activity against Cryptococcus neoformans after 72 hrs by microbroth dilution method
Kluyveromyces marxianus = test: Antifungal activity against Candida kefyr by microbroth dilution method
Candida parapsilosis = test: Antifungal activity against Candida parapsilosis by microbroth dilution method; conditions: Lodderomyces parapsilosis
Candida albicans [1] = test: Antifungal activity against Candida albicans SC5314 after 24 hrs by microbroth dilution method; conditions: SC5314, 24 h
Candida albicans [2] = test: Antifungal activity against Candida albicans Y0109 after 24 hrs by microbroth dilution method; conditions: Y0109, 24 h

Compound	MIC80 (Aspergillus fumigatus)	MIC80 (Candida tropicalis)	MIC80 (Trichophyton rubrum)	MIC80 (Cryptococcus neoformans)	MIC80 (Kluyveromyces marxianus)	MIC80 (Candida parapsilosis)	MIC80 (Candida albicans [1])	MIC80 (Candida albicans [2])
C[C@@H]1[C@H](O)[C@@H](C)/C=C/C=C/C=C/C=C/C=C/C=C/C=C/[C@H](O[C@@H]2O[C@H](C)[C@@H](O)[C@H](N)[C@@H]2O)C[C@@H]2O[C@](O)(C[C@@H](O)C[C@@H](O)[C@H](O)CC[C@@H](O)C[C@@H](O)CC(=O)O[C@H]1C)C[C@H](O)[C@H]2C(=O)O [AMPHOTERICIN B]	1 µg/mL (≈ 1.08 µM)	1 µg/mL (≈ 1.08 µM)	4 µg/mL (≈ 4.33 µM)	1 µg/mL (≈ 1.08 µM)	0.25 µg/mL (≈ 0.271 µM)	0.25 µg/mL (≈ 0.271 µM)	0.25 µg/mL (≈ 0.271 µM)	0.25 µg/mL (≈ 0.271 µM)
OC(Cc1cn(Cc2ccc(Cl)c(Cl)c2)nn1)(Cn1cncn1)c1ccc(F)cc1F (centres undefined)	32 µg/mL (≈ 68.8 µM)	0.125 µg/mL (≈ 0.269 µM)	0.25 µg/mL (≈ 0.537 µM)	1 µg/mL (≈ 2.15 µM)	0.25 µg/mL (≈ 0.537 µM)	0.125 µg/mL (≈ 0.269 µM)	0.25 µg/mL (≈ 0.537 µM)	0.125 µg/mL (≈ 0.269 µM)
OC(Cc1cn(Cc2cccc(F)c2)nn1)(Cn1cncn1)c1ccc(F)cc1F (centres undefined)	32 µg/mL (≈ 77.2 µM)	0.25 µg/mL (≈ 0.603 µM)	0.25 µg/mL (≈ 0.603 µM)	0.25 µg/mL (≈ 0.603 µM)	0.0625 µg/mL (≈ 0.151 µM)	0.125 µg/mL (≈ 0.302 µM)	< 0.125 µg/mL	0.0625 µg/mL (≈ 0.151 µM)
C[C@@H](c1ncncc1F)[C@](O)(Cn1cncn1)c1ccc(F)cc1F [VORICONAZOLE]	0.0156 µg/mL (≈ 0.0447 µM)	0.0039 µg/mL (≈ 0.0112 µM)	0.0156 µg/mL (≈ 0.0447 µM)	0.0039 µg/mL (≈ 0.0112 µM)	0.0625 µg/mL (≈ 0.179 µM)	0.0039 µg/mL (≈ 0.0112 µM)	0.0625 µg/mL (≈ 0.179 µM)	0.0625 µg/mL (≈ 0.179 µM)
OC(Cc1cn(Cc2ccc(Br)cc2)nn1)(Cn1cncn1)c1ccc(F)cc1F (centres undefined)	8 µg/mL (≈ 16.8 µM)	0.25 µg/mL (≈ 0.526 µM)	0.125 µg/mL (≈ 0.263 µM)	0.25 µg/mL (≈ 0.526 µM)	0.0625 µg/mL (≈ 0.131 µM)	0.125 µg/mL (≈ 0.263 µM)	0.0625 µg/mL (≈ 0.131 µM)	0.0625 µg/mL (≈ 0.131 µM)
COc1ccc(OC)c(Cn2cc(CC(O)(Cn3cncn3)c3ccc(F)cc3F)nn2)c1 (centres undefined)	2 µg/mL (≈ 4.38 µM)	0.125 µg/mL (≈ 0.274 µM)	0.0625 µg/mL (≈ 0.137 µM)	0.0625 µg/mL (≈ 0.137 µM)	0.0625 µg/mL (≈ 0.137 µM)	0.0625 µg/mL (≈ 0.137 µM)	0.0625 µg/mL (≈ 0.137 µM)	0.0156 µg/mL (≈ 0.0342 µM)
OC(Cc1cn(Cc2ccccc2)nn1)(Cn1cncn1)c1ccc(F)cc1F (centres undefined)	16 µg/mL (≈ 40.4 µM)	0.0625 µg/mL (≈ 0.158 µM)	0.25 µg/mL (≈ 0.631 µM)	< 0.25 µg/mL	< 0.125 µg/mL	0.0625 µg/mL (≈ 0.158 µM)	0.125 µg/mL (≈ 0.315 µM)	0.0625 µg/mL (≈ 0.158 µM)
OC(Cc1cn(Cc2cc(Cl)cc(Cl)c2)nn1)(Cn1cncn1)c1ccc(F)cc1F (centres undefined)	32 µg/mL (≈ 68.8 µM)	0.25 µg/mL (≈ 0.537 µM)	< 0.125 µg/mL	1 µg/mL (≈ 2.15 µM)	0.5 µg/mL (≈ 1.07 µM)	0.25 µg/mL (≈ 0.537 µM)	0.25 µg/mL (≈ 0.537 µM)	0.125 µg/mL (≈ 0.269 µM)
O=[N+]([O-])c1ccc(Cn2cc(CC(O)(Cn3cncn3)c3ccc(F)cc3F)nn2)cc1 (centres undefined)	16 µg/mL (≈ 36.2 µM)	0.125 µg/mL (≈ 0.283 µM)	0.25 µg/mL (≈ 0.566 µM)	0.5 µg/mL (≈ 1.13 µM)	0.0625 µg/mL (≈ 0.142 µM)	0.25 µg/mL (≈ 0.566 µM)	< 0.125 µg/mL	0.0625 µg/mL (≈ 0.142 µM)
OC(Cc1cn(Cc2ccc(F)cc2)nn1)(Cn1cncn1)c1ccc(F)cc1F (centres undefined)	32 µg/mL (≈ 77.2 µM)	0.25 µg/mL (≈ 0.603 µM)	0.125 µg/mL (≈ 0.302 µM)	0.25 µg/mL (≈ 0.603 µM)	0.0625 µg/mL (≈ 0.151 µM)	0.125 µg/mL (≈ 0.302 µM)	< 0.125 µg/mL	0.0625 µg/mL (≈ 0.151 µM)
OC(Cc1cn(Cc2ccccc2F)nn1)(Cn1cncn1)c1ccc(F)cc1F (centres undefined)	16 µg/mL (≈ 38.6 µM)	0.0625 µg/mL (≈ 0.151 µM)	0.125 µg/mL (≈ 0.302 µM)	0.125 µg/mL (≈ 0.302 µM)	0.0625 µg/mL (≈ 0.151 µM)	0.125 µg/mL (≈ 0.302 µM)	0.0625 µg/mL (≈ 0.151 µM)	0.0625 µg/mL (≈ 0.151 µM)
CC(C)(C)c1ccc(Cn2cc(CC(O)(Cn3cncn3)c3ccc(F)cc3F)nn2)cc1 (centres undefined)	4 µg/mL (≈ 8.84 µM)	0.0625 µg/mL (≈ 0.138 µM)	0.0625 µg/mL (≈ 0.138 µM)	< 0.125 µg/mL	0.0625 µg/mL (≈ 0.138 µM)	0.125 µg/mL (≈ 0.276 µM)	0.0625 µg/mL (≈ 0.138 µM)	0.0625 µg/mL (≈ 0.138 µM)
N#Cc1ccc(Cn2cc(CC(O)(Cn3cncn3)c3ccc(F)cc3F)nn2)cc1 (centres undefined)	32 µg/mL (≈ 75.9 µM)	0.125 µg/mL (≈ 0.297 µM)	0.25 µg/mL (≈ 0.593 µM)	0.5 µg/mL (≈ 1.19 µM)	< 0.125 µg/mL	0.25 µg/mL (≈ 0.593 µM)	0.125 µg/mL (≈ 0.297 µM)	0.0625 µg/mL (≈ 0.148 µM)
OC(Cc1cn(Cc2ccccc2Br)nn1)(Cn1cncn1)c1ccc(F)cc1F (centres undefined)	4 µg/mL (≈ 8.42 µM)	0.0625 µg/mL (≈ 0.131 µM)	0.25 µg/mL (≈ 0.526 µM)	0.25 µg/mL (≈ 0.526 µM)	0.0625 µg/mL (≈ 0.131 µM)	0.0625 µg/mL (≈ 0.131 µM)	0.0625 µg/mL (≈ 0.131 µM)	0.0625 µg/mL (≈ 0.131 µM)
OC(Cc1cn(Cc2cccc(Cl)c2)nn1)(Cn1cncn1)c1ccc(F)cc1F (centres undefined)	8 µg/mL (≈ 18.6 µM)	0.25 µg/mL (≈ 0.58 µM)	0.125 µg/mL (≈ 0.29 µM)	0.5 µg/mL (≈ 1.16 µM)	0.0625 µg/mL (≈ 0.145 µM)	0.125 µg/mL (≈ 0.29 µM)	< 0.125 µg/mL	0.0625 µg/mL (≈ 0.145 µM)
OC(Cc1cn(Cc2cccc(Br)c2)nn1)(Cn1cncn1)c1ccc(F)cc1F (centres undefined)	8 µg/mL (≈ 16.8 µM)	0.25 µg/mL (≈ 0.526 µM)	0.25 µg/mL (≈ 0.526 µM)	0.25 µg/mL (≈ 0.526 µM)	0.125 µg/mL (≈ 0.263 µM)	0.125 µg/mL (≈ 0.263 µM)	< 0.125 µg/mL	0.0625 µg/mL (≈ 0.131 µM)
OC(Cc1cn(Cc2ccccc2Cl)nn1)(Cn1cncn1)c1ccc(F)cc1F (centres undefined)	16 µg/mL (≈ 37.1 µM)	0.0625 µg/mL (≈ 0.145 µM)	0.25 µg/mL (≈ 0.58 µM)	0.25 µg/mL (≈ 0.58 µM)	0.125 µg/mL (≈ 0.29 µM)	0.0625 µg/mL (≈ 0.145 µM)	0.0625 µg/mL (≈ 0.145 µM)	0.0625 µg/mL (≈ 0.145 µM)
OC(Cn1cncn1)(Cn1cncn1)c1ccc(F)cc1F [FLUCONAZOLE]	64 µg/mL (≈ 209 µM)	1 µg/mL (≈ 3.27 µM)	1 µg/mL (≈ 3.27 µM)	1 µg/mL (≈ 3.27 µM)	4 µg/mL (≈ 13.1 µM)	0.5 µg/mL (≈ 1.63 µM)	0.5 µg/mL (≈ 1.63 µM)	0.5 µg/mL (≈ 1.63 µM)
